Measurements published in US20260013504A1, “HERBICIDAL MIXTURE, HERBICIDAL COMPOSITION, METHOD, USE, AND KITS FOR CONTROLLING UNDESIRABLE VEGETATION” (ADAMA AGAN LTD., priority 2022, published 2026).

Legend:
Format in all cases: in vivo
[1] = tested on: Galium aparine; assay: Pot experiment, soil treatment, control of Galium aparine (fresh weight, Colby)
[2] = tested on: Bromus japonicus; assay: Pot experiment, soil treatment, control of Bromus japonicus (fresh weight, Colby); details: mixtures: both AIs at these rates, after 35 days
[3] = tested on: Lolium multiflorum Lamk; assay: Pot experiment, soil treatment, control of Lolium multiflorum Lamk (fresh weight, Colby); details: mixtures: both AIs at these rates, after 35 days
[4] = tested on: Lithospermum arvense; assay: Pot experiment, soil treatment, control of Lithospermum arvense (fresh weight, Colby)
[5] = tested on: Aegilops tauschii; assay: Pot experiment, soil treatment, control of Aegilops tauschii (fresh weight, Colby); details: mixtures: both AIs at these rates, after 35 days
[6] = tested on: Solanum nigrum; assay: Pot experiment (glass greenhouse), soil treatment, control of Solanum nigrum (fresh weight, Colby)
[7] = g ai/ha: pyroxasulfone 11.25, fluorochloridone 31.25, aclonifen 150, diflufenican 14.0625, terbutryn 140.625
[8] = g ai/ha: pyroxasulfone 22.5, fluorochloridone 62.5, aclonifen 300, diflufenican 28.125, terbutryn 281.25
[9] = g ai/ha: pyroxasulfone 45, fluorochloridone 125, aclonifen 600, diflufenican 56.25, terbutryn 562.5
[10] = g ai/ha: pyroxasulfone 90, fluorochloridone 250, aclonifen 1200, diflufenican 112.5, terbutryn 1125
[11] = g ai/ha: pyroxasulfone 180, fluorochloridone 500, aclonifen 2400, diflufenican 225, terbutryn 2250
[12] = g ai/ha: pyroxasulfone 360, fluorochloridone 1000, aclonifen 4800, diflufenican 450, terbutryn 4500

CCNc1nc(NC(C)(C)C)nc(SC)n1 [terbutryn, N-(1,1-dimethylethyl)-N′-ethyl-6-(methylthio)-1,3,5-triazine-2,4-diamine]
Measured fresh weight survival rate (%) - E ([1]; 140.625 g ai/ha): 80.8%
Measured fresh weight survival rate (%) - E ([1]; 281.25 g ai/ha): 53.4%
Measured fresh weight survival rate (%) - E ([1]; 562.5 g ai/ha): 9.6%
Measured fresh weight survival rate (%) - E ([1]; 1125 g ai/ha): 8.2%
Measured fresh weight survival rate (%) - E ([1]; 2250 g ai/ha): 0.0%
inhibition at 140.625 g/ha ([1]; Galium aparine, soil, 140.625 g ai/ha, read-out: Measured fresh weight inhibition rate (%)): 19.2%
inhibition at 281.25 g/ha ([1]; Galium aparine, soil, 281.25 g ai/ha, read-out: Measured fresh weight inhibition rate (%)): 46.6%
inhibition at 562.5 g/ha ([1]; Galium aparine, soil, 562.5 g ai/ha, read-out: Measured fresh weight inhibition rate (%)): 90.4%
inhibition at 1125 g/ha ([1]; Galium aparine, soil, 1125 g ai/ha, read-out: Measured fresh weight inhibition rate (%)): 91.8%
inhibition at 2250 g/ha ([1]; Galium aparine, soil, 2250 g ai/ha, read-out: Measured fresh weight inhibition rate (%)): 100%
Measured fresh weight inhibition rate (%) [2, 7]: 100.0%
Measured fresh weight survival rate (%) - E [2, 7]: 0.0%
Measured fresh weight inhibition rate (%) [2, 8]: 100.0%
Measured fresh weight survival rate (%) - E [2, 8]: 0.0%
Measured fresh weight inhibition rate (%) [2, 9]: 100.0%
Measured fresh weight survival rate (%) - E [2, 9]: 0.0%
Measured fresh weight inhibition rate (%) [2, 10]: 100.0%
Measured fresh weight survival rate (%) - E [2, 10]: 0.0%
Measured fresh weight inhibition rate (%) [2, 11]: 100.0%
Measured fresh weight survival rate (%) - E [2, 11]: 0.0%
Measured fresh weight inhibition rate (%) [3, 7]: 94.3%
Measured fresh weight survival rate (%) - E [3, 7]: 5.7%
Measured fresh weight inhibition rate (%) [3, 8]: 94.8%
Measured fresh weight survival rate (%) - E [3, 8]: 5.2%
Measured fresh weight inhibition rate (%) [3, 9]: 100.0%
Measured fresh weight survival rate (%) - E [3, 9]: 0.0%
Measured fresh weight inhibition rate (%) [3, 10]: 100.0%
Measured fresh weight survival rate (%) - E [3, 10]: 0.0%
Measured fresh weight inhibition rate (%) [3, 11]: 100.0%
Measured fresh weight survival rate (%) - E [3, 11]: 0.0%
Measured fresh weight inhibition rate (%) [3, 12]: 100.0%
Measured fresh weight survival rate (%) - E [3, 12]: 0.0%
Measured fresh weight survival rate (%) - E ([4]; 140.625 g ai/ha): 1.4%
Measured fresh weight survival rate (%) - E ([4]; 281.25 g ai/ha): 1.4%
Measured fresh weight survival rate (%) - E ([4]; 562.5 g ai/ha): 0.0%
Measured fresh weight survival rate (%) - E ([4]; 1125 g ai/ha): 0.0%
Measured fresh weight survival rate (%) - E ([4]; 2250 g ai/ha): 0.0%
inhibition at 140.625 g/ha ([4]; Buglossoides arvensis, soil, 140.625 g ai/ha, read-out: Measured fresh weight inhibition rate (%)): 98.6%
inhibition at 281.25 g/ha ([4]; Buglossoides arvensis, soil, 281.25 g ai/ha, read-out: Measured fresh weight inhibition rate (%)): 98.6%
inhibition at 562.5 g/ha ([4]; Buglossoides arvensis, soil, 562.5 g ai/ha, read-out: Measured fresh weight inhibition rate (%)): 100%
inhibition at 1125 g/ha ([4]; Buglossoides arvensis, soil, 1125 g ai/ha, read-out: Measured fresh weight inhibition rate (%)): 100%
inhibition at 2250 g/ha ([4]; Buglossoides arvensis, soil, 2250 g ai/ha, read-out: Measured fresh weight inhibition rate (%)): 100%
Measured fresh weight inhibition rate (%) [5, 7]: 8.5%
Measured fresh weight survival rate (%) - E [5, 7]: 91.5%
Measured fresh weight inhibition rate (%) [5, 8]: 12.8%
Measured fresh weight survival rate (%) - E [5, 8]: 87.2%
Measured fresh weight inhibition rate (%) [5, 9]: 46.3%
Measured fresh weight survival rate (%) - E [5, 9]: 53.7%
Measured fresh weight inhibition rate (%) [5, 10]: 97.6%
Measured fresh weight survival rate (%) - E [5, 10]: 2.4%
Measured fresh weight inhibition rate (%) [5, 11]: 96.3%
Measured fresh weight survival rate (%) - E [5, 11]: 3.7%
Measured fresh weight inhibition rate (%) [5, 12]: 100.0%
Measured fresh weight survival rate (%) - E [5, 12]: 0.0%
Measured fresh weight survival rate (%) - E ([6]; 140.625 g ai/ha): 57.6%
Measured fresh weight survival rate (%) - E ([6]; 281.25 g ai/ha): 36.1%
Measured fresh weight survival rate (%) - E ([6]; 562.5 g ai/ha): 0.4%
Measured fresh weight survival rate (%) - E ([6]; 1125 g ai/ha): 0.0%
Measured fresh weight survival rate (%) - E ([6]; 2250 g ai/ha): 0.0%
inhibition at 140.625 g/ha ([6]; Solanum nigrum, soil, 140.625 g ai/ha, read-out: Measured fresh weight inhibition rate (%)): 42.4%
inhibition at 281.25 g/ha ([6]; Solanum nigrum, soil, 281.25 g ai/ha, read-out: Measured fresh weight inhibition rate (%)): 63.9%
inhibition at 562.5 g/ha ([6]; Solanum nigrum, soil, 562.5 g ai/ha, read-out: Measured fresh weight inhibition rate (%)): 99.6%
inhibition at 1125 g/ha ([6]; Solanum nigrum, soil, 1125 g ai/ha, read-out: Measured fresh weight inhibition rate (%)): 100%
inhibition at 2250 g/ha ([6]; Solanum nigrum, soil, 2250 g ai/ha, read-out: Measured fresh weight inhibition rate (%)): 100%
